Data reported in ChEMBL document CHEMBL4823274, “Discovery of chiral N-2'-aryletheryl-1'-alkoxy-ethyl substituted arylisoquinolones with anti-inflammatory activity from the nucleophilic addition reactions of the thiophenols and oxazolinium” (Eur J Med Chem, 2021).
The source made the active and inactive calls. The calls are words filed in the database; no cut-off is given here.

Columns and labels:
RAW264.7 [1] = test: Antiinflammatory activity against LPS-stimulated mouse RAW264.7 cells assessed inhibition of TNFalpha release incubated for 24 hrs in presence of LPS by ELISA; assay type: functional, cell-based; settings: RAW264.7, 24 h
[2] = Cytotoxicity against mouse RAW264.7 cells assessed as reduction in cell viability incubated for 24 hrs by CCK8 assay; assay type: cell-based
[3] = Cytotoxicity against mouse RAW264.7 cells assessed as cell viability at 0.5 uM incubated for 24 hrs by CCK8 assay; assay type: cell-based; settings: read-out: Activity
RAW264.7 [4] = test: Antiinflammatory activity against LPS-stimulated mouse RAW264.7 cells assessed inhibition of TNFalpha release at 0.5 uM incubated for 24 hrs in presence of LPS by ELISA; assay type: functional
Mus musculus [5] = test: Antiinflammatory activity against DSS-induced ulcerative colitis C57BL/6J mouse model assessed as reduction in disease activity index at 30 mg/kg, po administered daily via gavage and measured for 11 days; assay type: functional, organism-based; settings: time 11.0 day
Homo sapiens [6] = species: Homo sapiens; test: Selectivity ratio of Ki for human ERalpha LBD to Ki for human ERbeta LBD
Mus musculus [7] = test: Antiinflammatory activity against DSS-induced ulcerative colitis C57BL/6J mouse model assessed as restoration of normal stool consistency at 30 mg/kg, po administered daily via gavage and measured for 11 days; assay type: functional, organism-based; settings: time 11.0 day
Mus musculus [8] = test: Antiinflammatory activity against DSS-induced ulcerative colitis C57BL/6J mouse model assessed as reduction in body weight loss at 30 mg/kg, po administered daily via gavage and measured for 11 days; assay type: functional, organism-based; settings: time 11.0 day
[9] = molecular target: T1, Estrogen receptor (Homo sapiens) (UniProt P03372); test: Binding affinity to human ERalpha LBD measured after 2 hrs by competitive fluorometric binding assay relative to 17beta-estradiol
T1 sequence (whole entry): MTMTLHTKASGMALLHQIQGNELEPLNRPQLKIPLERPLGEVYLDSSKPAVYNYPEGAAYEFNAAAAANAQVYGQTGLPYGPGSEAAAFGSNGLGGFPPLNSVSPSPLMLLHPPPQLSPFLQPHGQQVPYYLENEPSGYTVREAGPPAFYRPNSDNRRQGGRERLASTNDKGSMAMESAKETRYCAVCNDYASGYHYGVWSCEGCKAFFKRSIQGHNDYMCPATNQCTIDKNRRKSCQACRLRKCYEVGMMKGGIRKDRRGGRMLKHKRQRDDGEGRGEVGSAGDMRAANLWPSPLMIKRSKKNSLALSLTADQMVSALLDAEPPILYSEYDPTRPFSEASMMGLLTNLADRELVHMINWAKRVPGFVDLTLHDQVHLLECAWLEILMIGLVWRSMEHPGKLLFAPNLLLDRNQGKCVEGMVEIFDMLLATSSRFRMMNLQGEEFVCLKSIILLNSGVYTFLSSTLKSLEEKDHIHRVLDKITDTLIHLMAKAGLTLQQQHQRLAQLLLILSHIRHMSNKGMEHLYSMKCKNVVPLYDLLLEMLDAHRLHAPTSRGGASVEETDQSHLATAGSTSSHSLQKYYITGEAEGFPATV

Estrogen receptor beta [10] = molecular target: T2, Estrogen receptor beta (Homo sapiens, UniProt Q92731); test: Binding affinity to human ERbeta LBD measured after 2 hrs by competitive fluorometric binding assay relative to 17beta-estradiol
Homo sapiens [11] = species: Homo sapiens; test: Selectivity ratio of relative binding affinity for human ERalpha LBD to relative binding affinity for human ERbeta LBD
Mus musculus [12] = test: Antiinflammatory activity against DSS-induced ulcerative colitis C57BL/6J mouse model assessed as reduction in fecal occult blood at 30 mg/kg, po administered daily via gavage and measured for 11 days; assay type: functional, organism-based; settings: time 11.0 day
Estrogen receptor beta [13] = molecular target: T2, Estrogen receptor beta; test: Binding affinity to human ERbeta LBD measured after 2 hrs by competitive fluorometric binding assay
Estrogen receptor = molecular target: T3, Estrogen receptor (Homo sapiens, UniProt P03372); test: Binding affinity to human ERalpha LBD measured after 2 hrs by competitive fluorometric binding assay
T3 sequence (P03372 whole entry): T1 sequence (whole entry)

T2 sequence (Q92731 whole entry, the tested form may be a part): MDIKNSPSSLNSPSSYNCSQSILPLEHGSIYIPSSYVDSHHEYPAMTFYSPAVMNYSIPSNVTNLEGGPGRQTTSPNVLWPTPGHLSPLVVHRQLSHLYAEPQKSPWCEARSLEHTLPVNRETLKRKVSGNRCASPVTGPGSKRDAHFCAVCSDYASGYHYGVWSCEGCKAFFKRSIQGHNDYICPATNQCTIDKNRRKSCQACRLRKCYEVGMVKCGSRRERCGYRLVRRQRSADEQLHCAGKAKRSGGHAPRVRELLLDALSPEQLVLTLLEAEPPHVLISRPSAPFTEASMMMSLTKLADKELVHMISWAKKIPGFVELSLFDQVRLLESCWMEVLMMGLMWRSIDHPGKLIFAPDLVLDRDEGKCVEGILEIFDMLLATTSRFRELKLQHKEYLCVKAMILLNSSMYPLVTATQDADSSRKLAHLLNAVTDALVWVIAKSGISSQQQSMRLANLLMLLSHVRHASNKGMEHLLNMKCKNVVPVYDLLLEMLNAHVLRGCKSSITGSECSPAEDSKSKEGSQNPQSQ

## COc1ccc2cc(-c3ccc4c(c3)OCO4)n([C@@H](CSc3ccc([N+](=O)[O-])cc3)OC)c(=O)c2c1OC
RAW264.7 [1]
  IC50: 56 nM
[2]
  CC50 at 24 h: 7040 nM

## COc1ccc2cc(-c3ccc4c(c3)OCO4)n(C(CSc3ccccc3)OC)c(=O)c2c1OC (centres undefined)
[3]
  viability at 24 h, 0.5 µM: 85.4%
RAW264.7 [4]
  inhibition at 0.5 µM: 49.4%

## COc1ccc2cc(-c3ccc4c(c3)OCO4)n([C@H](CSc3ccc([N+](=O)[O-])cc3)OC)c(=O)c2c1OC
RAW264.7 [1]
  IC50: > 2500 nM
[2]
  CC50 at 24 h: > 2500 nM

## COc1ccc2cc(-c3ccc4c(c3)OCO4)n(C(CSc3ccc(C(F)(F)F)cc3)OC)c(=O)c2c1OC (centres undefined)
[3]
  viability at 24 h, 0.5 µM: 98%
RAW264.7 [4]
  inhibition at 0.5 µM: 72.9%

## COc1ccc2cc(-c3ccc4c(c3)OCO4)n(C(CSc3cccc(Br)c3)OC)c(=O)c2c1OC (centres undefined)
[3]
  viability at 24 h, 0.5 µM: 57%
RAW264.7 [4]
  inhibition at 0.5 µM: 36.1%

## COc1ccc2cc(-c3ccc4c(c3)OCO4)n(C(CSc3ccc(Br)cc3)OC)c(=O)c2c1OC (centres undefined)
[3]
  viability at 24 h, 0.5 µM: 70.9%
RAW264.7 [4]
  inhibition at 0.5 µM: 84.5%

## COc1ccc2cc(-c3ccc4c(c3)OCO4)n(C(CSc3ccc([N+](=O)[O-])cc3)OC)c(=O)c2c1OC (centres undefined)
[3]
  viability at 24 h, 0.5 µM: 80.1%
RAW264.7 [4]
  inhibition at 0.5 µM: 87.8%

## COc1ccc2cc(-c3ccc4c(c3)OCO4)n(C(CSc3nc(C)cc(C)n3)OC)c(=O)c2c1OC (centres undefined)
[3]
  viability at 24 h, 0.5 µM: 101%
RAW264.7 [4]
  inhibition at 0.5 µM: 69.7%

## COc1ccc(SCC(OC)n2c(-c3ccc4c(c3)OCO4)cc3ccc(OC)c(OC)c3c2=O)cc1 (centres undefined)
[3]
  viability at 24 h, 0.5 µM: 80.8%
RAW264.7 [4]
  inhibition at 0.5 µM: -3.4%

## COc1ccc2cc(-c3ccc4c(c3)OCO4)n(C(CSc3ccc(F)cc3)OC)c(=O)c2c1OC (centres undefined)
[3]
  viability at 24 h, 0.5 µM: 77.8%
RAW264.7 [4]
  inhibition at 0.5 µM: 77.4%

## COc1ccc2cc(-c3ccc4c(c3)OCO4)n(C(CSc3cccc(C(F)(F)F)c3)OC)c(=O)c2c1OC (centres undefined)
[3]
  viability at 24 h, 0.5 µM: 93.3%
RAW264.7 [4]
  inhibition at 0.5 µM: 69.2%

## COc1ccc2cc(-c3ccc4c(c3)OCO4)n([C@@H](COc3ccc([N+](=O)[O-])cc3)OC)c(=O)c2c1OC
Mus musculus [5]
  Activity: Active
Homo sapiens [6]
  Ratio Ki: 3
Mus musculus [7]
  Activity: Active
Mus musculus [8]
  Activity: Active
[9]
  RBA: 0.24%
Estrogen receptor beta [10]
  RBA: 1.04%
Homo sapiens [11]
  Ratio: 0.23
Mus musculus [12]
  Activity: Active
Estrogen receptor beta [13]
  Ki: 761 nM
Estrogen receptor
  Ki: 2320 nM
RAW264.7 [1]
  IC50: 14 nM
[2]
  CC50 at 24 h: 1820 nM

## COc1ccc2cc(-c3ccc4c(c3)OCO4)n(C(CSc3cc(C(F)(F)F)cc(C(F)(F)F)c3)OC)c(=O)c2c1OC (centres undefined)
[3]
  viability at 24 h, 0.5 µM: 82.8%
RAW264.7 [4]
  inhibition at 0.5 µM: 78.3%

## COc1ccc2cc3[n+](cc2c1OC)CCc1cc2c(cc1-3)OCO2 [BERBERINE]
[3]
  viability at 24 h, 0.5 µM: 129%
RAW264.7 [4]
  inhibition at 0.5 µM: 4.1%

## COc1ccc2cc(-c3ccc4c(c3)OCO4)n([C@H](COc3ccc([N+](=O)[O-])cc3)OC)c(=O)c2c1OC
[9]
  RBA: 0.03%
Estrogen receptor beta [10]
  RBA: 0.03%
Homo sapiens [11]
  Ratio: 1
Estrogen receptor beta [13]
  Ki: 25600 nM
Estrogen receptor
  Ki: 17100 nM
RAW264.7 [1]
  IC50: > 10000 nM
[2]
  CC50 at 24 h: > 2500 nM

## COc1ccc2cc(-c3ccc4c(c3)OCO4)n(C(CSc3ccccc3Br)OC)c(=O)c2c1OC (centres undefined)
[3]
  viability at 24 h, 0.5 µM: 80.7%
RAW264.7 [4]
  inhibition at 0.5 µM: 80.7%

## COc1ccc2cc(-c3ccc4c(c3)OCO4)n(C(CSc3ccc(C)cc3)OC)c(=O)c2c1OC (centres undefined)
[3]
  viability at 24 h, 0.5 µM: 70.4%
RAW264.7 [4]
  inhibition at 0.5 µM: 79.6%
